Data taken from patent US20250002487A1, “HETEROCYCLIC COMPOUNDS AND USES THEREOF” (Ventus Therapeutics U.S., Inc., priority 2021, published 2025).

Target: human-cGAS (h-cGAS) (Homo sapiens, UniProt Q8N884)
Assay: hcGAS Kinase-Glo Assay
Type: biochemical
Conditions: 40 nM h-cGAS, 100 μM ATP, 100 μM GTP, 25 nM dsDNA, 3 h incubation, read-out: hcGAS potency IC50
Experimental: In some embodiments, the compounds of the instant disclosure may be tested for their human-cGAS (h-cGAS) inhibition activity using the methodology reported in Lama et al., “Development of human cGAS-specific small molecule inhibitors for repression of double stranded DNA (dsDNA)-triggered interferon expression”, Nature Communications 10, Article number: 2261 (2019), incorporated herein by reference. hcGAS Kinase-Glo Assay Compounds were tested for their human-cGAS (h-cGAS) inhibition activity using the methodology reported in Lama et al., “Development of human cGAS-specific small molecule inhibitors for repression of double stranded DNA (dsDNA)-triggered interferon expression”, Nature Communications 10. Article number: 2261 (2019), which is herein incorporated by reference in its entirety, with slight changes to some conditions as shown in Table B. The results of the assays, expressed in IC50 ranges are reported in Table C with the following designations: A represents an IC50 value <0.1 μM; B represents an IC50 value ≥0.1 μM and <0.5 μM; C represents an IC50 value ≥0.5 μM and <1.0 μM; D represents an IC50 value ≥1.0 μM. [table]

Sequence of human-cGAS (h-cGAS) (Q8N884 whole entry): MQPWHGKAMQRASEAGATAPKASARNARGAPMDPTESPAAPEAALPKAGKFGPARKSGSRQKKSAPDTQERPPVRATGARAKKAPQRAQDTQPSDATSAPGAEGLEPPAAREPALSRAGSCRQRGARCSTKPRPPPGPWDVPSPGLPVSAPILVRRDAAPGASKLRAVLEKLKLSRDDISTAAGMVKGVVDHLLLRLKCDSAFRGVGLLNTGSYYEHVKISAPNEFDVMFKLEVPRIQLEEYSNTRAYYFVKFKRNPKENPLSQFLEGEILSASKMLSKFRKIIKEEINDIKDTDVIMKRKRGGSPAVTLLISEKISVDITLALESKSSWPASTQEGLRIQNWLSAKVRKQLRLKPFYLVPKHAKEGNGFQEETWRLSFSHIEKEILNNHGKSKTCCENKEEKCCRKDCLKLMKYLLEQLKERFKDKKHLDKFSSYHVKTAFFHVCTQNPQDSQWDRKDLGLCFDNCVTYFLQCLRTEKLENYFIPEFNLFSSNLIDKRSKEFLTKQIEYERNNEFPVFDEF

**Q.** Which IC50 does the source give for COc1cc(C(=O)Nc2nnc(-c3ccccc3Cl)s2)on1 [Compound 31, N-(5-(2-chlorophenyl)-1,3,4-thiadiazol-2-yl)-3-methoxyisoxazole-5-carboxamide] here?
**A.** The IC50 was 100 to 500 nM.

**Q.** For NC(=O)c1cc(C(=O)Nc2nnc(-c3ccccc3Cl)s2)on1 [Compound 32, N5-(5-(2-chlorophenyl)-1,3,4-thiadiazol-2-yl)isoxazole-3,5-dicarboxamide], which IC50 is on record?
**A.** The IC50 was 100 to 500 nM.

**Q.** With CCc1cc(C(=O)Nc2nnc(-c3ccccc3Cl)s2)on1 [Compound 33, N-(5-(2-chlorophenyl)-1,3,4-thiadiazol-2-yl)-3-ethylisoxazole-5-carboxamide] as the molecule, how does the IC50 read?
**A.** The IC50 was 100 to 500 nM.

**Q.** O=C(Nc1nnc(-c2ccccc2Cl)s1)c1cc(C(F)(F)F)no1 [Compound 34, N-(5-(2-chlorophenyl)-1,3,4-thiadiazol-2-yl)-3-(trifluoromethyl)isoxazole-5-carboxamide] was tested. Which IC50 did it give?
**A.** The IC50 was 500 to 1000 nM.

**Q.** O=C(Nc1nnc(-c2ccccc2Cl)s1)c1cc(C(F)F)no1 [Compound 35, N-(5-(2-chlorophenyl)-1,3,4-thiadiazol-2-yl)-3-(difluoromethyl)isoxazole-5-carboxamide] was tested. Which IC50 did it give?
**A.** Its IC50 is 500 to 1000 nM.

**Q.** With Cc1cc(C(=O)Nc2nnc(-c3ccccc3Cl)s2)on1 [Compound 36, N-(5-(2-chlorophenyl)-1,3,4-thiadiazol-2-yl)-3-methylisoxazole-5-carboxamide] as the molecule, how does the IC50 read?
**A.** The IC50 was 100 to 500 nM.

**Q.** With N#Cc1cc(C(=O)Nc2nnc(-c3ccccc3Cl)s2)on1 [Compound 37, N-(5-(2-chlorophenyl)-1,3,4-thiadiazol-2-yl)-3-cyanoisoxazole-5-carboxamide] as the molecule, how does the IC50 read?
**A.** The IC50 was under 100 nM.

**Q.** O=C(Nc1nnc(-c2ccccc2Cl)s1)c1cc(C2CCOCC2)no1 [Compound 38, N-(5-(2-chlorophenyl)-1,3,4-thiadiazol-2-yl)-3-(tetrahydro-2H-pyran-4-yl)isoxazole-5-carboxamide] was tested. Which IC50 did it give?
**A.** The IC50 was 100 to 500 nM.

**Q.** How did the IC50 turn out when O=C(Nc1nnc(-c2ccccc2Cl)s1)c1cc(C2CC2)no1 [Compound 39, N-(5-(2-chlorophenyl)-1,3,4-thiadiazol-2-yl)-3-cyclopropylisoxazole-5-carboxamide] was run?
**A.** The IC50 was 100 to 500 nM.

**Q.** With CC(C)c1cc(C(=O)Nc2nnc(-c3ccccc3Cl)s2)on1 [Compound 40, N-(5-(2-chlorophenyl)-1,3,4-thiadiazol-2-yl)-3-isopropylisoxazole-5-carboxamide] as the molecule, how does the IC50 read?
**A.** The IC50 was 100 to 500 nM.

**Q.** CC1(c2cc(C(=O)Nc3nnc(-c4ccccc4Cl)s3)on2)COC1 [Compound 41, N-(5-(2-chlorophenyl)-1,3,4-thiadiazol-2-yl)-3-(3-methyloxetan-3-yl)isoxazole-5-carboxamide] was tested. Which IC50 did it give?
**A.** The IC50 was 100 to 500 nM.

**Q.** With CSc1nnc(NC(=O)c2cn(Cc3ccccc3)nn2)s1 [Compound 42, 1-benzyl-N-(5-(methylthio)-1,3,4-thiadiazol-2-yl)-1H-1,2,3-triazole-4-carboxamide] as the molecule, how does the IC50 read?
**A.** Its IC50 is at least 1000 nM.

**Q.** CSc1nnc(NC(=O)c2onc3c2CN(C(=O)OC(C)(C)C)CC3)s1 [Compound 43, tert-butyl 3-((5-(methylthio)-1,3,4-thiadiazol-2-yl)carbamoyl)-6,7-dihydroisoxazolo[4,3-c]pyridine-5(4H)-carboxylate] was tested. Which IC50 did it give?
**A.** The IC50 was at least 1000 nM.

**Q.** CSc1nnc(NC(=O)c2nnc(Cc3cccc(Cl)c3)o2)s1 [Compound 44, 5-(3-chlorobenzyl)-N-(5-(methylthio)-1,3,4-thiadiazol-2-yl)-1,3,4-oxadiazole-2-carboxamide] was tested. Which IC50 did it give?
**A.** Its IC50 is at least 1000 nM.

**Q.** With CSc1nnc(NC(=O)c2nnc(-c3c(F)cccc3F)o2)s1 [Compound 45, 5-(2,6-difluorophenyl)-N-(5-(methylthio)-1,3,4-thiadiazol-2-yl)-1,3,4-oxadiazole-2-carboxamide] as the molecule, how does the IC50 read?
**A.** The IC50 was 500 to 1000 nM.

**Q.** For CSc1nnc(NC(=O)c2cc(-c3c(F)cccc3F)no2)s1 [Compound 46, 3-(2,6-difluorophenyl)-N-(5-(methylthio)-1,3,4-thiadiazol-2-yl)isoxazole-5-carboxamide], which IC50 is on record?
**A.** The IC50 was 100 to 500 nM.

**Q.** CSc1nnc(NC(=O)c2cc(-c3cc(F)ccc3F)no2)s1 [Compound 47, 3-(2,5-difluorophenyl)-N-(5-(methylthio)-1,3,4-thiadiazol-2-yl)isoxazole-5-carboxamide] was tested. Which IC50 did it give?
**A.** The IC50 was 500 to 1000 nM.

**Q.** Which IC50 does the source give for CSc1nnc(NC(=O)c2cc(-c3ccc(F)cc3F)no2)s1 [Compound 48, 3-(2,4-difluorophenyl)-N-(5-(methylthio)-1,3,4-thiadiazol-2-yl)isoxazole-5-carboxamide] here?
**A.** Its IC50 is 500 to 1000 nM.

**Q.** Which IC50 does the source give for CSc1nnc(NC(=O)c2nnc(Cc3ccccc3Cl)o2)s1 [Compound 49, 5-(2-chlorobenzyl)-N-(5-(methylthio)-1,3,4-thiadiazol-2-yl)-1,3,4-oxdiazole-2-carboxamide] here?
**A.** Its IC50 is 500 to 1000 nM.

**Q.** How did the IC50 turn out when CSc1nnc(NC(=O)c2cc(-c3ccc(Cl)cc3)no2)s1 [Compound 50, 3-(4-chlorophenyl)-N-(5-(methylthio)-1,3,4-thiadiazol-2-yl)isoxazole-5-carboxamide] was run?
**A.** Its IC50 is 500 to 1000 nM.

**Q.** Which IC50 does the source give for O=C(Nc1nnc(-c2ccccc2Cl)s1)c1cc(=O)c2cccc(O)c2[nH]1 [Compound 51, N-(5-(2-chlorophenyl)-1,3,4-thiadiazol-2-yl)-8-hydroxy-4-oxo-1,4-dihydroquinoline-2-carboxamide] here?
**A.** The IC50 was 500 to 1000 nM.

**Q.** Which IC50 does the source give for Cn1cc(-c2cc(C(=O)Nc3nnc(-c4ccccc4Cl)s3)on2)cn1 [Compound 52, N-(5-(2-chlorophenyl)-1,3,4-thiadiazol-2-yl)-3-(1-methyl-1H-pyrazol-4-yl)isoxazole-5-carboxamide] here?
**A.** The IC50 was 100 to 500 nM.

**Q.** Which IC50 does the source give for Cc1c(-c2cc(C(=O)Nc3nnc(-c4ccccc4Cl)s3)on2)cnn1C [Compound 53, N-(5-(2-chlorophenyl)-1,3,4-thiadiazol-2-yl)-3-(1,5-dimethyl-1H-pyrazol-4-yl)isoxazole-5-carboxamide] here?
**A.** The IC50 was 100 to 500 nM.

**Q.** With Cc1nn(C)cc1-c1cc(C(=O)Nc2nnc(-c3ccccc3Cl)s2)on1 [Compound 54, N-(5-(2-chlorophenyl)-1,3,4-thiadiazol-2-yl)-3-(1,3-dimethyl-1H-pyrazol-4-yl)isoxazole-5-carboxamide] as the molecule, how does the IC50 read?
**A.** The IC50 was 100 to 500 nM.

**Q.** With O=C(Nc1nnc(-c2ccccc2Cl)s1)c1cc(O)no1 [Compound 55, N-(5-(2-chlorophenyl)-1,3,4-thiadiazol-2-yl)-3-hydroxyisoxazole-5-carboxamide] as the molecule, how does the IC50 read?
**A.** Its IC50 is under 100 nM.

**Q.** O=C(Nc1nnc(-c2ccccc2Cl)s1)c1ccc(O)nn1 [Compound 56, N-(5-(2-chlorophenyl)-1,3,4-thiadiazol-2-yl)-6-hydroxypyridazine-3-carboxamide] was tested. Which IC50 did it give?
**A.** The IC50 was 100 to 500 nM.

**Q.** Which IC50 does the source give for O=C(Nc1nnc(-c2cccc(Cl)c2Cl)s1)c1cc(O)no1 [Compound 57, N-(5-(2,3-dichlorophenyl)-1,3,4-thiadiazol-2-yl)-3-hydroxyisoxazole-5-carboxamide] here?
**A.** The IC50 was under 100 nM.

**Q.** O=C(Nc1nnc(-c2ccccc2Cl)s1)c1nc[nH]n1 [Compound 58, N-(5-(2-chlorophenyl)-1,3,4-thiadiazol-2-yl)-1H-1,2,4-triazole-3-carboxamide] was tested. Which IC50 did it give?
**A.** The IC50 was 500 to 1000 nM.

**Q.** With O=C(Nc1nnc(-c2ccccc2Cl)s1)c1c[nH]nn1 [Compound 59, N-(5-(2-chlorophenyl)-1,3,4-thiadiazol-2-yl)-1H-1,2,3-triazole-4-carboxamide] as the molecule, how does the IC50 read?
**A.** Its IC50 is 500 to 1000 nM.

**Q.** With O=C(Nc1nnc(-c2ccccc2Cl)s1)c1nnn[nH]1 [Compound 60, N-(5-(2-chlorophenyl)-1,3,4-thiadiazol-2-yl)-1H-tetrazole-5-carboxamide] as the molecule, how does the IC50 read?
**A.** Its IC50 is at least 1000 nM.

**Q.** With O=C(Nc1nnc(-c2ccccc2Cl)s1)c1c[nH]c(=O)o1 [Compound 61, N-(5-(2-chlorophenyl)-1,3,4-thiadiazol-2-yl)-2-oxo-2,3-dihydrooxazole-5-carboxamide] as the molecule, how does the IC50 read?
**A.** Its IC50 is 100 to 500 nM.
